Data on 21 compounds can be found in patent publication US20250236616A1, “IMMUNOMODULATING AZALIDES” (Zoetis Services LLC, priority 2021, published 2025).

As a reminder, the minimal effective concentration is the lowest level tested that produced the effect sought. One may read the IC50 as the point on the concentration scale where inhibition reaches its midpoint. A lower IC50 goes with greater potency in that assay.

Assay type in all cases: cell-based
The subject of test [1] is IL-1β. The experiment in a line: Whole bovine blood assay, LPS-induced IL-1β (inhibition / overstimulation). The settings on record: drug concentration giving overstimulation (OS) of LPS-induced IL-1β, top concentration 250 μM. The method, boiled down:
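IL-1β was quantified by MSD U-Plex chemiluminescence in plasma and normalized to BCA total protein. Bovine blood was pretreated 4 h at 37 °C with compound dilutions before 18 h LPS challenge (1 μg/mL final). Rising IL-1β at high concentrations was recorded as overstimulation.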

For test [2], the system named is IL-6. The experiment in a line: Whole bovine blood assay, LPS-induced IL-6. The settings on record: fresh whole bovine blood, LPS stimulant; top drug concentration 250 μM.
Test [3] has as its system TNF-α. The experiment in a line: Whole bovine blood assay, LPS-induced TNF-α. Particulars: fresh whole bovine blood, LPS stimulant; top drug concentration 250 μM. The method, boiled down:
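Fresh heparinized bovine whole blood was preincubated with compound 4 h at 37 °C, then stimulated with LPS (final 1 μg/mL) for 18 h at 37 °C. Plasma TNF-α was quantified by MSD U-Plex chemiluminescent immunoassay, normalized to total protein (BCA), and IC50 taken for LPS-induced TNF-α inhibition.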

`CCCNC[C@]1(O)[C@H](C)O[C@@H](O[C@H]2[C@H](C)[C@@H](O[C@@H]3O[C@H](C)C[C@H](N(C)S(=O)(=O)c4ccccc4)[C@H]3Oc3cccc([S+](C)[O-])c3)[C@](C)(O)C[C@@H](C)CN[C@H](C)[C@@H](O)[C@](C)(O)[C@@H](CC)OC(=O)[C@@H]2C)C[C@@]1(C)OC` (stereo partly drawn) [Example B-138] returned a minimal effective concentration in test [1] of 40 µM. The IC50 in test [2] was 70 µM; in test [3], 26 µM.
With `CCCNC[C@]1(O)[C@H](C)O[C@@H](O[C@H]2[C@H](C)[C@@H](O[C@@H]3O[C@H](C)C[C@H](N(C)S(=O)(=O)c4nccn4C)[C@H]3Oc3cccc([S+](C)[O-])c3)[C@](C)(O)C[C@@H](C)CN[C@H](C)[C@@H](O)[C@](C)(O)[C@@H](CC)OC(=O)[C@@H]2C)C[C@@]1(C)OC` (stereo partly drawn) [Example B-139], in test [1], the minimal effective concentration is reported as 40 µM. For the same compound, the IC50 in test [2] was found to be 73 µM; in test [3], 40 µM.
`CCCNC[C@]1(O)[C@H](C)O[C@@H](O[C@H]2[C@H](C)[C@@H](O[C@@H]3O[C@H](C)C[C@H](N(Cc4ccccc4)S(=O)(=O)c4nccn4C)[C@H]3O)[C@](C)(O)C[C@@H](C)CN[C@H](C)[C@@H](O)[C@](C)(O)[C@@H](CC)OC(=O)[C@@H]2C)C[C@@]1(C)OC` [Example B-143] yielded a minimal effective concentration in test [1] of 2 µM. For the same compound, the IC50 in test [2] is 8 µM; in test [3], 7 µM.
The compound `CCCNC[C@]1(O)[C@H](C)O[C@@H](O[C@H]2[C@H](C)[C@@H](O[C@@H]3O[C@H](C)C[C@H](N(Cc4ccccc4)S(=O)(=O)c4ccc(OC)cc4)[C@H]3O)[C@](C)(O)C[C@@H](C)CN[C@H](C)[C@@H](O)[C@](C)(O)[C@@H](CC)OC(=O)[C@@H]2C)C[C@@]1(C)OC` [Example B-144] returned a minimal effective concentration in test [1] of 2 µM. For the same compound, the IC50 in test [2] came out at 10 µM; in test [3], 9 µM.
As to `CCCNC[C@]1(O)[C@H](C)O[C@@H](O[C@H]2[C@H](C)[C@@H](O[C@@H]3O[C@H](C)C[C@H](N(Cc4ccccc4)S(=O)(=O)c4ccccc4)[C@H]3O)[C@](C)(O)C[C@@H](C)CN[C@H](C)[C@@H](O)[C@](C)(O)[C@@H](CC)OC(=O)[C@@H]2C)C[C@@]1(C)OC` [Example B-145], in test [1], the minimal effective concentration came out at 2 µM. For the same compound, the IC50 in test [2] is 6 µM; in test [3], 8 µM.
Turning to `CCCNC[C@]1(O)[C@H](C)O[C@@H](O[C@H]2[C@H](C)[C@@H](O[C@@H]3O[C@H](C)C[C@H](N(Cc4ccc(OC)cc4)S(=O)(=O)c4nccn4C)[C@H]3O)[C@](C)(O)C[C@@H](C)CN[C@H](C)[C@@H](O)[C@](C)(O)[C@@H](CC)OC(=O)[C@@H]2C)C[C@@]1(C)OC` [Example B-146], the minimal effective concentration in test [1] stood at 2 µM. The IC50 in test [2] and in test [3] was 10 µM in each case.
In test [1], `CCCNC[C@]1(O)[C@H](C)O[C@@H](O[C@H]2[C@H](C)[C@@H](O[C@@H]3O[C@H](C)C[C@H](N(Cc4ccc(OC)cc4)S(=O)(=O)c4ccc(OC)cc4)[C@H]3O)[C@](C)(O)C[C@@H](C)CN[C@H](C)[C@@H](O)[C@](C)(O)[C@@H](CC)OC(=O)[C@@H]2C)C[C@@]1(C)OC` [Example B-147] came in with a minimal effective concentration of 1 µM. The IC50 came to 5 µM in test [2] and 7 µM in test [3].
The like results for `CC[C@H]1OC(=O)[C@H](C)[C@@H](O[C@H]2C[C@@](C)(OC)[C@](O)(CN3CCCC3)[C@H](C)O2)[C@H](C)[C@@H](O[C@@H]2O[C@H](C)C[C@H](N(C)S(=O)(=O)c3ccc(Cl)cc3)[C@H]2O)[C@](C)(O)C[C@@H](C)CN[C@H](C)[C@@H](O)[C@]1(C)O` [Example C-3] were, in that order, 16 µM, 9 µM and 5 µM.
The like results for `CC[C@H]1OC(=O)[C@H](C)[C@@H](O[C@H]2C[C@@](C)(OC)[C@](O)(CN3CCSCC3)[C@H](C)O2)[C@H](C)[C@@H](O[C@@H]2O[C@H](C)C[C@H](N(C)S(=O)(=O)c3ccc(Cl)cc3)[C@H]2O)[C@](C)(O)C[C@@H](C)CN[C@H](C)[C@@H](O)[C@]1(C)O` [Example C-6] were, in that order, 16 µM, 32 µM and 6 µM.
The like results for `CC[C@H]1OC(=O)[C@H](C)[C@@H](O[C@H]2C[C@@](C)(OC)[C@](O)(CN3CCN(C)CC3)[C@H](C)O2)[C@H](C)[C@@H](O[C@@H]2O[C@H](C)C[C@H](N(C)S(=O)(=O)c3ccc(Cl)cc3)[C@H]2O)[C@](C)(O)C[C@@H](C)CN[C@H](C)[C@@H](O)[C@]1(C)O` [Example C-7] were, in that order, 6 µM, 50 µM and 66 µM.
The compound `CC[C@H]1OC(=O)[C@H](C)[C@@H](O[C@H]2C[C@@](C)(OC)[C@](O)(Cn3cnnn3)[C@H](C)O2)[C@H](C)[C@@H](O[C@@H]2O[C@H](C)C[C@H](N(C)S(=O)(=O)c3ccc(Cl)cc3)[C@H]2O)[C@](C)(O)C[C@@H](C)CN[C@H](C)[C@@H](O)[C@]1(C)O` [Example C-9] returned a minimal effective concentration in test [1] of 8 µM. For the same compound, the IC50 in test [2] and in test [3] was 23 µM throughout.
For the compound `CC[C@H]1OC(=O)[C@H](C)[C@@H](O[C@H]2C[C@@](C)(OC)[C@](O)(CN3CCN(CC)CC3)[C@H](C)O2)[C@H](C)[C@@H](O[C@@H]2O[C@H](C)C[C@H](N(C)S(=O)(=O)Nc3ccc(C(F)(F)F)cc3)[C@H]2O)[C@](C)(O)C[C@@H](C)CN[C@H](C)[C@@H](O)[C@]1(C)O` [Example C-12], the minimal effective concentration in test [1] is 100 µM. For the same compound, the IC50 in test [2] came to 140 µM; in test [3], 13 µM.
In the case of `CC[C@H]1OC(=O)[C@H](C)[C@@H](O[C@H]2C[C@@](C)(OC)[C@](O)(CN3CCS(=O)(=O)CC3)[C@H](C)O2)[C@H](C)[C@@H](O[C@@H]2O[C@H](C)C[C@H](N(C)S(=O)(=O)Nc3ccc(C(F)(F)F)cc3)[C@H]2O)[C@](C)(O)C[C@@H](C)CN[C@H](C)[C@@H](O)[C@]1(C)O` [Example C-13], in test [1], the minimal effective concentration was 6 µM. Besides, the IC50 in test [2] and in test [3] was greater than 250 µM throughout.
As to `CC[C@H]1OC(=O)[C@H](C)[C@@H](O[C@H]2C[C@@](C)(OC)[C@](O)(CN3CCN(C(C)C)CC3)[C@H](C)O2)[C@H](C)[C@@H](O[C@@H]2O[C@H](C)C[C@H](N(C)S(=O)(=O)Nc3ccc(C(F)(F)F)cc3)[C@H]2O)[C@](C)(O)C[C@@H](C)CN[C@H](C)[C@@H](O)[C@]1(C)O` [Example C-14], the minimal effective concentration in test [1] is on record as greater than 250 µM. Moreover, the IC50 in test [2] and in test [3] was greater than 250 µM throughout.
`CC[C@H]1OC(=O)[C@H](C)[C@@H](O[C@H]2C[C@@](C)(OC)[C@](O)(CN3CCN(S(C)(=O)=O)CC3)[C@H](C)O2)[C@H](C)[C@@H](O[C@@H]2O[C@H](C)C[C@H](N(C)S(=O)(=O)Nc3ccc(C(F)(F)F)cc3)[C@H]2O)[C@](C)(O)C[C@@H](C)CN[C@H](C)[C@@H](O)[C@]1(C)O` [Example C-15]: in test [1], the minimal effective concentration is on record as 16 µM. Moreover, the IC50 in test [2] was found to be 48 µM; in test [3] it was 10 µM.
The like results for `CC[C@H]1OC(=O)[C@H](C)[C@@H](O[C@H]2C[C@@](C)(OC)[C@](O)(CN3CCCCC3)[C@H](C)O2)[C@H](C)[C@@H](O[C@@H]2O[C@H](C)C[C@H](N(C)S(=O)(=O)N(CC)CC)[C@H]2O)[C@](C)(O)C[C@@H](C)CN[C@H](C)[C@@H](O)[C@]1(C)O` [Example C-35] were, in that order, 11 µM, 23 µM and 33 µM.
As for `CC[C@H]1OC(=O)[C@H](C)[C@@H](O[C@H]2C[C@@](C)(OC)[C@](O)(CN3CCCCC3)[C@H](C)O2)[C@H](C)[C@@H](O[C@@H]2O[C@H](C)C[C@H](N(CC(C)C)S(=O)(=O)Nc3ccc(C(F)(F)F)cc3)[C@H]2O)[C@](C)(O)C[C@@H](C)CN[C@H](C)[C@@H](O)[C@]1(C)O` [Example C-44], the minimal effective concentration in test [1] is 6 µM. In addition, the IC50 in test [2] and in test [3] was 4 µM throughout.
On to `CC[C@H]1OC(=O)[C@H](C)[C@@H](O[C@H]2C[C@@](C)(OC)[C@](O)(CN3CCCCC3)[C@H](C)O2)[C@H](C)[C@@H](O[C@@H]2O[C@H](C)C[C@H](N(C)S(=O)(=O)c3ccccc3)[C@H]2Oc2ccc(Cl)cn2)[C@](C)(O)C[C@@H](C)CN[C@H](C)[C@@H](O)[C@]1(C)O` [Example C-48], for which, in test [1], the minimal effective concentration is reported as 6 µM. Further, the results for the IC50 in test [2] and in test [3] were 6 µM and 4 µM, respectively.
`CC[C@H]1OC(=O)[C@H](C)[C@@H](O[C@H]2C[C@@](C)(OC)[C@](O)(CN3CCCCC3)[C@H](C)O2)[C@H](C)[C@@H](O[C@@H]2O[C@H](C)C[C@H](N(C)S(=O)(=O)c3nccn3C)[C@H]2Oc2ccnc(F)c2)[C@](C)(O)C[C@@H](C)CN[C@H](C)[C@@H](O)[C@]1(C)O` [Example C-49] registered a minimal effective concentration in test [1] of 6 µM. Also, the IC50 in test [2] was 9 µM; in test [3], 6 µM.
The compound `CC[C@H]1OC(=O)[C@H](C)[C@@H](O[C@H]2C[C@@](C)(OC)[C@](O)(CN3CCCCC3)[C@H](C)O2)[C@H](C)[C@@H](O[C@@H]2O[C@H](C)C[C@H](N(C)S(=O)(=O)c3ccccc3)[C@H]2Oc2ccccc2)[C@](C)(O)C[C@@H](C)CN[C@H](C)[C@@H](O)[C@]1(C)O` [Example C-53] had a minimal effective concentration in test [1] of 6 µM. Moreover, the IC50 in test [2] and in test [3] was 2 µM in each case.
`CC[C@H]1OC(=O)[C@H](C)[C@@H](O[C@H]2C[C@@](C)(OC)[C@](O)(CN3CCCCC3)[C@H](C)O2)[C@H](C)[C@@H](O[C@@H]2O[C@H](C)C[C@H](N(C)S(=O)(=O)c3ccccc3)[C@H]2Oc2ccc(F)cc2)[C@](C)(O)C[C@@H](C)CN[C@H](C)[C@@H](O)[C@]1(C)O` [Example C-54] displayed a minimal effective concentration in test [1] of 6 µM. Also, the IC50 is 4 µM in test [2] and 2 µM in test [3].
